Results taken from patent US11535643B2, “Macrolides with modified desosamine sugars and uses thereof” (President and Fellows of Harvard College, priority 2015, dated 2022).
Converted amounts (≈) assume the structure as drawn. Like-named read-outs stand apart in the source and are kept apart here.

How the values were obtained:
Assay type in all cases: cell-based
E. coli = experiment: Broth dilution MIC determination (CLSI) against E. coli strains; settings: for MIC: Escherichia coli
In short: (§1)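 Following CLSI procedures, broth dilution is used to find the MIC for each strain. Controls: azithromycin and solithromycin.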

A. baumannii = experiment: Broth dilution MIC determination (CLSI) against A. baumannii strains; settings: for MIC: Acinetobacter baumannii
In short: as §1

S. pyogenes = experiment: Broth dilution MIC determination (CLSI) against S. pyogenes strains; settings: for MIC: Streptococcus pyogenes
In short: as §1

H. influenzae = experiment: Broth dilution MIC determination (CLSI) against H. influenzae strains; settings: for MIC: Haemophilus influenzae
From the text: Minimum inhibitory concentrations (MICs) for macrolides described herein have been determined for unique strains of S. aureus, S. pneumoniae, S. pyogenes, E. faecalis, E. coli, A. baumannii, K. pneumoniae, P. aeruginosa, and H. influenzae, including several multidrug-resistant strains, with a special focus on macrolide resistant mechanisms. Azithromycin and solithromycin were included as control compounds. CLSI standard procedures for broth dilution MIC determination were used. Data for exemplary compounds described herein is shown in Tables M1-M7 and in Tables N1-N4.

P. aeruginosa = experiment: Broth dilution MIC determination (CLSI) against P. aeruginosa strains; settings: for MIC: Pseudomonas aeruginosa
In short: as §1

S. pneumoniae = experiment: Broth dilution MIC determination (CLSI) against S. pneumoniae strains; settings: for MIC: Streptococcus pneumoniae
In short: as §1

K. pneumoniae = experiment: Broth dilution MIC determination (CLSI) against K. pneumoniae strains; settings: for MIC: Klebsiella pneumoniae
In short: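 CLSI broth-dilution MICs across a panel including multidrug- and macrolide-resistant strains, with azithromycin and solithromycin as control compounds.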

S. aureus = experiment: Broth dilution MIC determination (CLSI) against S. aureus strains; settings: for MIC: Staphylococcus aureus
In short: as §1

E. faecalis = experiment: Broth dilution MIC determination (CLSI) against E. faecalis strains; settings: for MIC: Enterococcus faecalis
In short: as §1

[1] = ATCC25922, ATCC25922, read-out: MIC E. coli ATCC25922
[2] = read-out: MIC E. coli CTX-M-14, CTX-M-14
[3] = read-out: MIC E. coli NDM-1, NDM-1
[4] = read-out: MIC E. coli TEM-1, TEM-1
[5] = ATCC19606, ATCC19606, read-out: MIC A. baumannii ATCC19606
[6] = IMP-4, read-out: MIC A. baumannii IMP-4
[7] = chromosomal class C, read-out: MIC A. baumannii chromosomal class C
[8] = imipenem-resistant, read-out: MIC A. baumannii imipenem-resistant
[9] = ATCC19615, ATCC19615, read-out: MIC S. pyogenes ATCC19615
[10] = macrolide-resistant, read-out: MIC S. pyogenes macrolide-resistant
[11] = ATCC49247, ATCC49247, read-out: MIC H. influenzae ATCC49247
[12] = ATCC27853, read-out: MIC P. aeruginosa ATCC27853
[13] = read-out: MIC P. aeruginosa HPA101-1477
[14] = ATCC49619, ATCC49619, read-out: MIC S. pneumoniae ATCC49619
[15] = erm B + tet(M, O) genotype, read-out: MIC S. pneumoniae erm B + tet(M, O) genotype
[16] = ATCC10031, ATCC10031, read-out: MIC K. pneumoniae ATCC10031
[17] = KPC-2, read-out: MIC K. pneumoniae KPC-2
[18] = SHV-12, read-out: MIC K. pneumoniae SHV-12
[19] = MRSA / USA100, MRSA: USA100, read-out: MIC S. aureus MRSA: USA100
[20] = MRSA / USA300, MRSA: USA300, read-out: MIC S. aureus MRSA: USA300
[21] = USA600, USA600, GISA, read-out: MIC S. aureus USA600, GISA
[22] = read-out: MIC S. aureus erm A genotype
[23] = Vancomycin-resistant, read-out: MIC E. faecalis Vancomycin-resistant

Row | SMILES | MIC (E. coli; [1]) | MIC (E. coli; [2]) | MIC (E. coli; [3]) | MIC (E. coli; [4]) | MIC (A. baumannii; [5]) | MIC (A. baumannii; [6]) | MIC (A. baumannii; [7]) | MIC (A. baumannii; [8]) | MIC (S. pyogenes; [9]) | MIC (S. pyogenes; [10]) | MIC (H. influenzae; [11]) | MIC H. influenzae erythro > 4, azithro 1 (H. influenzae; erythro > 4, azithro 1) | MIC (P. aeruginosa; [12]) | MIC (P. aeruginosa; [13]) | MIC (S. pneumoniae; [14]) | MIC (S. pneumoniae; [15]) | MIC S. pneumoniae erm B + mef A genotype (S. pneumoniae; erm B + mef A genotype) | MIC (K. pneumoniae; [16]) | MIC (K. pneumoniae; [17]) | MIC (K. pneumoniae; [18]) | further results
1 | CC[C@H]1OC(=O)[C@H](C)C(=O)[C@H](C)[C@@H](O[C@@H]2OC(Cn3cc(-c4ccccn4)nn3)CC(N(C)C)C2O)[C@](C)(OC)C[C@@H](C)CN[C@H](C)[C@H]2N(CCCCn3cc(-c4cccc(N)c4)nn3)C(=O)O[C@]12C (stereo partly shown) [FSM-22111] | 16 µg/mL (≈ 16.5 µM) | > 32 µg/mL | 32 µg/mL (≈ 32.9 µM) | 16 µg/mL (≈ 16.5 µM) | 16 µg/mL (≈ 16.5 µM) | > 32 µg/mL | 16 µg/mL (≈ 16.5 µM) | 16 µg/mL (≈ 16.5 µM) | ≤ 0.0312 µg/mL | 1 µg/mL (≈ 1.03 µM) | 2 µg/mL (≈ 2.06 µM) | 1 µg/mL (≈ 1.03 µM) | > 32 µg/mL | > 32 µg/mL | ≤ 0.0312 µg/mL | ≤ 0.0312 µg/mL | 2 µg/mL | 8 µg/mL (≈ 8.23 µM) | 32 µg/mL (≈ 32.9 µM) | > 32 µg/mL | MIC K. pneumoniae TEM-10 (K. pneumoniae; TEM-10): 8 µg/mL (≈ 8.23 µM); MIC S. aureus ATCC29213 (S. aureus): 2 µg/mL (≈ 2.06 µM); MIC (S. aureus; [19]): > 32 µg/mL; MIC (S. aureus; [20]): > 32 µg/mL; MIC (S. aureus; [21]): > 32 µg/mL; MIC (S. aureus; [22]): > 32 µg/mL; MIC E. faecalis ATCC29212 (E. faecalis): 0.25 µg/mL (≈ 0.257 µM); MIC (E. faecalis; [23]): > 32 µg/mL
2 | CC[C@H]1OC(=O)[C@H](C)C(=O)[C@H](C)[C@@H](O[C@@H]2OC(CNC(=O)C(Cl)Cl)CC(N(C)C)C2O)[C@](C)(OC)C[C@@H](C)CN[C@H](C)[C@H]2N(CCCCn3cc(-c4cccc(N)c4)nn3)C(=O)O[C@]12C (stereo partly shown) [FSM-21842] | 16 µg/mL (≈ 16.8 µM) | > 32 µg/mL | 32 µg/mL (≈ 33.5 µM) | 16 µg/mL (≈ 16.8 µM) | 32 µg/mL (≈ 33.5 µM) | > 32 µg/mL | > 32 µg/mL | > 32 µg/mL | ≤ 0.0312 µg/mL | 0.5 µg/mL (≈ 0.524 µM) | 4 µg/mL (≈ 4.19 µM) |  | > 32 µg/mL | > 32 µg/mL | ≤ 0.0312 µg/mL | ≤ 0.0312 µg/mL |  | 4 µg/mL (≈ 4.19 µM) | > 32 µg/mL | > 32 µg/mL | MIC (H. influenzae; erythro > 4, azithro 1, read-out: MIC H. influenzae erythro > 4, azithro 1): 4 µg/mL (≈ 4.19 µM); MIC (S. pneumoniae; erm B + mef A genotype, read-out: MIC S. pneumoniae erm B + mef A genotype): 8 µg/mL; MIC (S. pneumoniae; read-out: MIC S. pneumoniae mef A genotype, mef A genotype): 1 µg/mL (≈ 1.05 µM); MIC (S. pneumoniae; read-out: MIC S. pneumoniae mef A genotype, mef A genotype, first of two such columns (c3)): 0.125 µg/mL (≈ 0.131 µM); MIC (K. pneumoniae; TEM-10, read-out: MIC K. pneumoniae TEM-10): 32 µg/mL (≈ 33.5 µM); MIC (S. aureus; ATCC29213, ATCC29213, read-out: MIC S. aureus ATCC29213): 4 µg/mL (≈ 4.19 µM); MIC (S. aureus; [19]): > 32 µg/mL; MIC (S. aureus; [20]): > 32 µg/mL; MIC (S. aureus; [21]): > 32 µg/mL; MIC (S. aureus; [22]): > 32 µg/mL; MIC (E. faecalis; ATCC29212, ATCC29212, read-out: MIC E. faecalis ATCC29212): 1 µg/mL (≈ 1.05 µM); MIC (E. faecalis; [23]): > 32 µg/mL
3 | CCC1OC(=O)C(C)(F)C(=O)C(C)C(OC2OC(COC(=O)c3ccccc3)C(O)C(N(C)C)C2O)C(C)(OC)CC(C)CNC(C)C2N(CCCCn3cc(-c4cccc(N)c4)nn3)C(=O)OC12C (stereo not shown) [FSM-21798] |  |  |  |  |  |  |  |  |  |  |  | >32 µg/mL |  |  |  |  | >32 µg/mL |  |  |  | MIC E. coli ATCC25922 (E. coli; ATCC25922): >32 µg/mL; MIC E. coli NDM-1 (E. coli; NDM-1): >32 µg/mL; MIC A. baumannii ATCC19606 (A. baumannii; ATCC19606): >32 µg/mL; MIC A. baumannii imipenem-resistant (A. baumannii; imipenem-resistant): >32 µg/mL; MIC S. pyogenes ATCC19615 (S. pyogenes; ATCC19615): 8 µg/mL (≈ 8.15 µM); MIC S. pyogenes macrolide-resistant (S. pyogenes; macrolide-resistant): 32 µg/mL (≈ 32.6 µM); MIC H. influenzae ATCC49247 (H. influenzae; ATCC49247): >32 µg/mL; MIC P. aeruginosa ATCC27853 (P. aeruginosa; ATCC27853): >32 µg/mL; MIC S. pneumoniae ATCC49619 (S. pneumoniae; ATCC49619): >32 µg/mL; MIC S. pneumoniae erm B + tet(M, O) genotype (S. pneumoniae; erm B + tet(M, O) genotype): >32 µg/mL; MIC K. pneumoniae ATCC10031 (K. pneumoniae; ATCC10031): >32 µg/mL; MIC K. pneumoniae KPC-2 (K. pneumoniae; KPC-2): >32 µg/mL; MIC S. aureus ATCC29213 (S. aureus): >32 µg/mL; MIC S. aureus MRSA: USA100 (S. aureus; MRSA: USA100): >32 µg/mL; MIC S. aureus MRSA: USA300 (S. aureus; MRSA: USA300): >32 µg/mL; MIC S. aureus USA600, GISA (S. aureus; USA600, GISA): >32 µg/mL; MIC S. aureus erm A genotype (S. aureus; erm A genotype): >32 µg/mL; MIC E. faecalis ATCC29212 (E. faecalis): 32 µg/mL (≈ 32.6 µM); MIC E. faecalis Vancomycin-resistant (E. faecalis; Vancomycin-resistant): >32 µg/mL
